Publication PMC7394103 (Frontiers in Pharmacology, 2020)

Key:
[1] = system: IL-6 secretion by synovial SW982 cells; test: IL-1β-induced IL-6 secretion by SW982 cells (ELISA); assay type: cell-based, human; settings: for IC50: Homo sapiens, SW982, 30 min compound, then 5 ng/ml IL-1β, 24 h, read-out: SW982 IL-6 IC50
Experimental: FLS, HUVEC, SW982, and THP-1 cells were plated in 96 well plates (10^4 to 10^5 cells/well) for 48 h before treatment. At 2 days post-confluency, the cells were serum-starved and washed twice (with the exception of THP-1 cell, which were not washed) with FBS-free medium prior to the addition of test compounds. […] Culture supernatants were collected and stored at –80°C. The levels of MMP-1 and MMP-3 were determined in culture supernatants using commercially available ELISA kits according to the manufacturer’s instructions (R&D System, Minneapolis, MN, USA). IL-6 levels were also determined in the supernatants using a human IL-6 ELISA kit (BD Biosciences, San Jose, CA, USA).

[2] = system: MMP-1 secretion by SW982 cells; test: IL-1β-induced MMP-1 secretion by SW982 cells (ELISA); assay type: cell-based; settings: Homo sapiens, 30 min compound, then 5 ng/ml IL-1β, 24 h, read-out: SW-982 MMP-1 IC50
Experimental: (§1) FLS, HUVEC, SW982, and THP-1 cells were plated in 96 well plates (10^4 to 10^5 cells/well) for 48 h before treatment. At 2 days post-confluency, the cells were serum-starved and washed twice (with the exception of THP-1 cell, which were not washed) with FBS-free medium prior to the addition of test compounds. The cells were incubated in the presence or absence of test compounds or DMSO (vehicle control) for 30 min at 37°C in a 5% CO2 atmosphere, IL-1β (5 ng/ml) was added, and the cells were incubated for an additional 24 h. Culture supernatants were collected and stored at –80°C. The levels of MMP-1 and MMP-3 were determined in culture supernatants using commercially available ELISA kits according to the manufacturer’s instructions (R&D System, Minneapolis, MN, USA). IL-6 levels were also determined in the supernatants using a human IL-6 ELISA kit (BD Biosciences, San Jose, CA, USA).

[3] = system: MMP-3 secretion by SW982 cells; test: IL-1β-induced MMP-3 secretion by SW982 cells (ELISA); assay type: cell-based; settings: Homo sapiens, 30 min compound, then 5 ng/ml IL-1β, 24 h
Experimental: as §1

[4] = system: MMP-3 secretion by HUVEC; test: IL-1β-induced MMP-3 secretion by HUVEC (ELISA); assay type: cell-based; settings: Homo sapiens, 30 min compound, then 5 ng/ml IL-1β, 24 h
Experimental: as §1

[5] = Cytotoxicity assay (CellTiter-Glo), THP-1; assay type: cell-based; settings: human, THP-1 cells; concentrations up to 50 µM; read-out: Cytotoxic effect THP-1 IC50
Experimental: (§2) Cytotoxicity was analyzed using a CellTiter-Glo Luminescent Cell Viability Assay Kit (Promega), according to the manufacturer’s protocol. Briefly, cells were cultured at a density of 10^4 to 10^5 cells/well with different concentrations of test compounds (final concentration of DMSO was 1%) for the indicated periods of time (2, 12, or 24 h) at 37°C and 5% CO2. Following treatment, substrate was added to the cells, and the samples were analyzed with a Fluoroscan Ascent FL microplate reader.

[6] = Cytotoxicity assay (CellTiter-Glo), HUVEC; assay type: cell-based; settings: human, HUVECs; concentrations up to 50 µM; read-out: Cytotoxic effect HUVEC IC50
Experimental: as §2

[7] = system: CIA in DBA1/J mice; test: Collagen-induced arthritis (CIA), clinical score and histopathology; assay type: in vivo; settings: 30 mg/kg i.p. daily; for CIA joint histopathology: day 8 to 42, vs saline; for CIA symptoms (clinical score): day 8 to 42, vs vehicle
Experimental: DBA1/J male mice (6–8 weeks) were obtained from The Jackson Laboratories (Bar Harbor, ME, USA). All animal experiments were performed in accordance with National Institutes of Health guidelines and approved by the Montana State University Institutional Animal Care and Use Committee.
To induce CIA in DBA1/J mice, immunization-grade bovine Type II collagen (CII) (Chondrex, Redmond, WA, USA) was solubilized in 0.05 M acetic acid (2 mg/ml), and 100 μg of CII emulsified in complete Freund’s adjuvant containing 4 mg/ml Mycobacterium tuberculosis (Chondrex) were injected subcutaneously (s.c.) in the tail ([Kochetkova et al., 2010]).
Mice were scored using a scale of 0 to 3 for each limb, with a maximal total score of 12, as previously described ([Schepetkin et al., 2015]): 0, no signs of inflammation; 1, mild redness or swelling of single digits; 2, significant swelling of ankle or wrist with erythema; and 3, severe swelling and erythema of multiple joints.
At 44 days after CII injection (CIA) or 14 days after anti-CII antibody injection (CAIA), the mice were euthanized, and their hind limbs were collected and fixed in 10% neutral buffered formalin. The limbs were decalcified in 5% formic acid for 3 to 6 days, and the joints were embedded in paraffin. Eight 8-μm sections were cut using a sagittal projection with 40 µm spacing of the cuts. Hematoxylin and eosin (H&E) and toluidine blue (TB) staining were performed for each sample.
H&E histopathological scores for the joints were determined by using a graded scale ([Schramm et al., 2004]), separately for cartilage destruction, pannus formation, and synovial cells changes. For cartilage destruction, the scale was: 0—normal, superficial zone is smooth; 1—superficial fibrillations, some loss of surface lamina; 2—vertical clefts/erosion to the calcified cartilage up to 25% of the surface; 3—vertical clefts/erosion to the calcified cartilage more than 25% of the surface, severe chondrocytes, and cartilage matrix loss with new bone tissue substitution, bone destruction. […] All sections of the hind paws and knee joints were examined, the highest score was recorded, with a total maximum score of 36 possible per mouse. The loss of the proteoglycans and cartilage degeneration was also scored in TB-stained sections on a graded scale of 0–3, as previously described ([Bernotiene et al., 2004]): 0—no cartilage loss; 1 – minimal chondrocytes and proteoglycan loss in superficial zone; 2—moderate chondrocytes and proteoglycan loss into middle zone but above tidemark; and 3—severe cartilage degeneration through tidemark, with the maximum score of 12 possible per mouse.

[8] = system: CII-specific Abs in CIA mice; test: Anti-CII antibody ELISA in serum of CIA mice; assay type: in vivo; settings: 30 mg/kg i.p. daily, day 8 to 42, vs saline
Experimental: Serum samples from mice with CIA were collected on day 44 after CII injection. Samples of the diluted sera were added to microtiter plates (Greiner Bio-One, Monroe, NC, USA) coated with 2 μg/ml ELISA grade mouse CII (Chondrex). Horseradish peroxidase-conjugated goat […] total IgG, IgG1, IgG2a, IgG2b, and IgG3 (Southern Biotechnology Associates, Birmingham, AL, USA) were used for detection. The samples were developed with 2,2’-azino-bis(3-ethylbenzothiazoline-6-sulphonic acid (Moss Inc., Pasadena, MD, USA), and absorbance was monitored at 415 nm using a SpectraMax Plus microplate reader. Endpoint titer represents reciprocal log 2 for the serum dilution with absorbance ≥ 0.1 above negative control.

SMILES	overall inhibition of IL-6 secretion in combination with SP600125 ([1]; 5 µM TRYP plus SP600125, compared to SP600125 alone)	IC50 [1]	IC50 [2]	IC50 [3]	IC50 [4]	IC50 [5]	IC50 [6]	CIA joint histopathology [7]	CIA symptoms (clinical score) [7]	titers of CII-specific IgG, IgG1, IgG2a, IgG2b, IgG3 [8]
O=C1c2ccccc2-n2c1nc1ccccc1c2=O [TRYP, indolo[2,1-b]quinazolin-6,12-dione]	acted synergistically	2.5 ± 1.1 µM	7.8 ± 2 µM	8.7 ± 0.3 µM	12.8 ± 4.4 µM	18.2 ± 2.3 µM	13.8 ± 1.5 µM	little cartilage erosion, synovial hyperplasia, or cellular infiltration	significant reductions in CIA symptoms	significantly lower
O=c1c2ccccc2nc2n1-c1ccccc1/C2=N/O [TRYP-Ox, tryptanthrin-6-oxime]		0.4 ± 0.2 µM	2.6 ± 0.8 µM	1.4 ± 0.1 µM	15.9 ± 5.8 µM	> 50 µM	> 50 µM	little cartilage erosion, synovial hyperplasia, or cellular infiltration	significant reductions in CIA symptoms	significantly lower
